Experimental data published in patent US8252832B2, “Kinesin inhibitors as cancer therapeutics” (Novartis AG, priority 2007, dated 2012).
Where two headings read alike, the source gives them in different places. Marks after values point to notes of the source that are not given here.

Legend:
[1] = In vivo pharmacokinetic parameters (clearance, half-life, AUC); conditions: for clearance: read-out: In vivo Clearance rate
[2] = molecular target: T1, motor domain of human KSP (Eg 5, KNSL1) (Homo sapiens, UniProt P52732); assay: Assay for determining KSP activity (microtubule/KSP ATPase, Biomol Green); format: biochemical; conditions: read-out: In vitro activity (IC-50 - nm)
T1 construct: KSP motor protein (i.e., the KSP motor domain); made in house
T1 sequence (P52732 18-359 limits assumed): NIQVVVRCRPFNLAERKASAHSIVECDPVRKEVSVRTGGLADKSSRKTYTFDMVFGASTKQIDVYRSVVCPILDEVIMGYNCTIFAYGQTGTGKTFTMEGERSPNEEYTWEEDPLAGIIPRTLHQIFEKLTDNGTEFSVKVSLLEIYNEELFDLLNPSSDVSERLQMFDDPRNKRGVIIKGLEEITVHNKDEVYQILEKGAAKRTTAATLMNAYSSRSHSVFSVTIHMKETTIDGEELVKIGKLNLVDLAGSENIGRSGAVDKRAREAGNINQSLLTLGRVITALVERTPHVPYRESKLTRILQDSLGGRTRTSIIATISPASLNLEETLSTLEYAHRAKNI
Experimental: Purified microtubules obtained from bovine brain were purchased from Cytoskeleton Inc. (Denver, Colo., USA). The motor domain of human KSP (Eg 5, KNSL1) was cloned, expressed, and purified to greater than 95% homogeneity. Biomol Green™ was purchased from Affinity Research Products Ltd. (Matford Court, Exeter, Devon, United Kingdom). Microtubules and KSP motor protein (i.e., the KSP motor domain) were diluted in assay buffer (20 mM Tris-HCl (pH 7.5), 1 mM MgCl2, 10 mM DTT and 0.25 mg/mL BSA) to a final concentration of 35 μg/mL microtubules and 45 nM KSP. The microtubule/KSP mixture was then pre-incubated at 37° C. for 10 min to promote the binding of KSP to microtubules.
To each well of the testing plate (384-well plate) containing 1.25 μL of inhibitor or test compound in DMSO (or DMSO only, in the case of controls) were added 25 μL of ATP solution (ATP diluted to a concentration of 300 μM in assay buffer) and 25 μL of the above-described microtubule/KSP solution. The plates were incubated at RT for 1 hour. Following incubation, 65 μL of Biomol Green™ (a malachite green-based dye that detects the release of inorganic phosphate) was added to each well. The plates were incubated for an additional 5-10 minutes then the absorbance at 630 nm was determined using a Victor II plate reader. The amount of absorbance at 630 nm corresponded to the amount of KSP activity in the samples. The IC50 of each inhibitor or test compound was then determined based on the decrease in absorbance at 630 nm at each concentration, via nonlinear regression using either XLFit for Excel or Prism data analysis software by GraphPad Software Inc.

KB8.5 tumor xenograft = KB8.5 tumor xenograft model (P-gp expressing), tumor response; format: in vivo, mouse; conditions: for ΔT/ΔC, Day 11 (%): q4d × 3
Experimental: Cells were cultured for fewer than 10 passages prior to use. […] All data were expressed as mean and SEM. Between-groups comparisons for final tumor measurements were performed using the one-way ANOVA pair-wise analysis. Significance was determined using Kruskal-Wallis one-way ANOVA on Ranks, followed by appropriate post-hoc test (Dunn's Method or Tukey Test) for multiple pair-wise comparisons. Statistical analysis was carried out using SigmaStat (Systat Software Inc., San Jose, Calif.).

[3] = for Survival (alive/total) / % Max. Δ body weight, (Day): q4d × 3
Experimental: Experiments were performed using outbred athymic nu/nu mice (Charles River Laboratories) approximately 6-8 weeks old. Upon arrival, animals received a subcutaneous microchip implant (AVID, Folsom, La.) in the subscapular region for identification of individuals. Animals were allowed to acclimatize for 1 week before any experimental procedures began.
Compound IIa, compound IIc, compound IIa (shown below), and SB-715992 were formulated in a Captisol®-based formulation. Doses were administered intravenously (i.v.) and adjusted to each animal's body weight. Formulations were made once at the beginning of study and stored at room temperature. Clinical grade paclitaxel was purchased pre-mixed in a cremophor-based vehicle (Mayne Pharma, now Hospira, Lake Forest, Ill., catalog #NDC-6170334209) and diluted in sterile saline to provide a dose volume of 16 mL/kg for a 30 mg/kg dose administered intraperitoneally (i.p.)
For the efficacy studies, mice were enrolled with a mean tumor volume of approximately 300 mm^3. Tumor xenografts were measured in two dimensions (L and W) with digital calipers twice weekly from the start of dosing on Day 0. Tumor volume was calculated as (L×W^2)/2. Body weights were measured twice weekly and clinical observations were recorded daily. Tumor volume and body weights were captured and stored by StudyDirector software (StudyLog, South San Francisco, Calif.).

HCT-15 = assay: CellTiter-Glo proliferation, 72 hours; format: cell-based; conditions: Homo sapiens; Colon, HCT-15, 72 hours
Source text: (§1) Cell lines used were as follows: HCT-116 (National Cancer Institute's DCTF Tumor Repository, catalog #NCI-502568, Rockville, Md.), HCT-15 (National Cancer Institute's DCTF Tumor Repository, catalog#NCI-502711, Rockville, Md. available from American Type Tissue Collection, catalog #CLL-225), KB-3-1 (available from DSMZ, Deutsche Sammlung von Mikroorganismen und Zellkulturen GmbH (German Collection of Microorganisms and Cell Cultures—catalog number ACC 158), KB-V1 (available from DSMZ—catalog number ACC 149), AGS (available from American Type Culture Collection, Manassas Va., catalog number CRL-1739™), N87 (available from American Type Culture Collection, Manassas Va., catalog number CRL-5822), Hel92.1.7 (available from American Type Culture Collection, Manassas Va., catalog number TIB 180), K562 (available from American Type Culture Collection, Manassas Va., catalog number CRL-243™), MV4; 11 (American Tissue Culture Collection, Manassas Va., catalog number CRL-9591) and U937 (available from American Type Culture Collection, Manassas Va., catalog number CRL-1593.2).
(§2) Cells were plated in 96-well plates at densities of about 500 cells per well of a 96-well plate and allowed to grow for 24 hours. The cells were then treated with various concentrations of compounds for 72 hours. Then, 100 μl of CellTiter-Glo® reagent was added (Promega Corporation). CellTiter-Glo® is used in a homogeneous method of determining the number of viable cells using the single CellTiter-Glo® reagent to detect ATP (U.S. Pat. Nos. 6,602,677 and 7,241,584) (see Promega product catalog #G7570). Following the addition of the CellTiter-Glo® reagent, the cells were incubated in the dark for 30 minutes. The amount of luminescence was determined for each well using a Wallac Trilux plate reader, which correlates with the number of cells per well. The number of viable cells in the wells that receive only DMSO (0.5%) served as an indication of 0% inhibition, while wells without cells served as 100% inhibition of cell growth. […] This broad activity is consistent with a compound that is a mitotic inhibitor.

KB3.1 = assay: CellTiter-Glo proliferation, 72 hours; format: cell-based; conditions: Homo sapiens, KB 3-1; Epidermoid, KB3.1, 72 hours
Source text: as §1, §2

KB8.5 = assay: CellTiter-Glo proliferation, 72 hours; format: cell-based; conditions: Homo sapiens; Epidermoid, KB8.5, 72 hours

Compound C[C@H](O)C(=O)N(CC[C@H](N)CF)[C@@H](c1nc(-c2cc(F)ccc2F)cn1Cc1ccccc1)C(C)(C)C [Compound IIc] has an AUC [1] of 1700 ng·h/mL, a half-life [1] of 1.83 h and a clearance [1] of 47 mL/min/kg. The IC50 [2] was 0.9 nM, the “percent ΔT/ΔC” value (KB8.5 tumor xenograft; 1.25 mg/kg, q4d×3, day 11) was 39% and the “ΔT/ΔC, Day 11 (%)” value (KB8.5 tumor xenograft; Table 14 study, 1.25 mg/kg, i.v., KB8.5 xenograft, female nu/nu mice, p < 0.05 versus vehicle) was 39* %. For the same compound, the body weight ([3]; 2.5 mg/kg treated group) was “significant weight loss”, the “Survival (alive/total)” value ([3]; Table 14 study, 1.25 mg/kg, i.v.) was 9/9 and the “% Max. Δ body weight, (Day)” value ([3]; Table 14 study, 1.25 mg/kg, i.v., D11) was −5 (D11) %. The “% Max. Δ body weight, (Day)” value ([3]; Table 14 study, 2.5 mg/kg, i.v., D8) was −10 (D8) % and the “Survival (alive/total)” value ([3]; Table 14 study, 2.5 mg/kg, i.v., due to 4/9 mice having 15% weight loss or more) was “All down on Day 8”.

With COCC(=O)N(CC[C@H](N)CF)[C@@H](c1nc(-c2cc(F)ccc2F)cn1Cc1ccccc1)C(C)(C)C [Compound Ia] the GI50 (HCT-15) was 0.3 nM, the GI50 (KB3.1) was 0.4 nM and the AUC [1] was 2670 ng·h/mL. The half-life [1] was 1.95 h, the clearance [1] was 29 mL/min/kg and the IC50 [2] was 0.6 nM. The GI50 (KB8.5) was 0.4 nM, the “efficacy in the KB8.5 tumor xenograft model” value (KB8.5 tumor xenograft; 5 mg/kg, q4d×3) was “not efficacious” and the “ΔT/ΔC, Day 11 (%)” value (KB8.5 tumor xenograft; Table 15 study, 1.25 mg/kg, i.v., not statistically different from vehicle) was 84%. For the same compound, the “ΔT/ΔC, Day 11 (%)” value (KB8.5 tumor xenograft; Table 15 study, 2.5 mg/kg, i.v., not statistically different from vehicle) was 61%, the “ΔT/ΔC, Day 11 (%)” value (KB8.5 tumor xenograft; Table 15 study, 5 mg/kg, iv., not statistically different from vehicle) was 66% and the “Survival (alive/total)” value ([3]; Table 15 study, 1.25 mg/kg, i.v.) was 10/10. The “% Max. Δ body weight, (Day)” value ([3]; Table 15 study, 1.25 mg/kg, i.v., D11) was 1 (D11) %, the “Survival (alive/total)” value ([3]; Table 15 study, 2.5 mg/kg, i.v.) was 10/10 and the “% Max. Δ body weight, (Day)” value ([3]; Table 15 study, 2.5 mg/kg, i.v., D4) was −0.4 (D4) %. For the same compound, the “Survival (alive/total)” value ([3]; Table 15 study, 5 mg/kg, iv.) was 10/10 and the “% Max. Δ body weight, (Day)” value ([3]; Table 15 study, 5 mg/kg, iv., D4) was −2 (D4) %.

Compound CC(=O)N(CC[C@H](N)CF)[C@@H](c1nc(-c2cc(F)ccc2F)cn1Cc1ccccc1)C(C)(C)C [Compound Ib] has an AUC [1] of 867 ng·h/mL, a half-life [1] of 1.5 h and a clearance [1] of 94 mL/min/kg. The IC50 [2] was 22 nM.
